Laboratory results: publication PMC9448371, “Synthesis and biological activity evaluation of 3-(hetero) arylideneindolin-2-ones as potential c-Src inhibitors” (Journal of Enzyme Inhibition and Medicinal Chemistry, 2022)
Like-named read-outs stand apart in the source and are kept apart here. Each block holds one compound with its values, some of them ahead of it.

Tests used:
c-Src = molecular target: T1, c-Src (Homo sapiens, UniProt P12931); assay: c-Src kinase inhibition assay (ADP-Glo Kinase Assay); type: biochemical; conditions: for IC50: 100 μM ATP, read-out: ID50 (the source's name); for Ki: calculated from ID50 assuming fully ATP-competitive inhibition
T1 construct: His6 (N); purchased Merck-Millipore 14–326
Experimental: To avoid peptide adsorption to the plastic surface, protein low-binding tubes were used. ADP-Glo Kinase Assay (Promega) was then used to detect kinase activity accordingly with manufacturer’s instruction with minor modifications. In details, reactions were transferred to white 384 well-plates and stopped by adding 10 µL of ADP-Glo Reagent (Promega) for 50 min at rt. 20 μL of Detection Reagent (Promega) was then added for 30 min and the reaction read using GloMax Discover microplate reader (Promega). Data were plotted using GraphPad Prism 5.0. […] Compounds tested were assumed to act as fully ATP-competitive inhibitors. Therefore, Ki values were calculated accordingly to Equation (2).

[1] = 100 μM compound, in-house collection screen, read-out: % Inhibition Src (100 μM)
[2] = 100 µM compound, Table 2, read-out: % Inhibition 100 µM

T1 sequence (P12931 whole entry): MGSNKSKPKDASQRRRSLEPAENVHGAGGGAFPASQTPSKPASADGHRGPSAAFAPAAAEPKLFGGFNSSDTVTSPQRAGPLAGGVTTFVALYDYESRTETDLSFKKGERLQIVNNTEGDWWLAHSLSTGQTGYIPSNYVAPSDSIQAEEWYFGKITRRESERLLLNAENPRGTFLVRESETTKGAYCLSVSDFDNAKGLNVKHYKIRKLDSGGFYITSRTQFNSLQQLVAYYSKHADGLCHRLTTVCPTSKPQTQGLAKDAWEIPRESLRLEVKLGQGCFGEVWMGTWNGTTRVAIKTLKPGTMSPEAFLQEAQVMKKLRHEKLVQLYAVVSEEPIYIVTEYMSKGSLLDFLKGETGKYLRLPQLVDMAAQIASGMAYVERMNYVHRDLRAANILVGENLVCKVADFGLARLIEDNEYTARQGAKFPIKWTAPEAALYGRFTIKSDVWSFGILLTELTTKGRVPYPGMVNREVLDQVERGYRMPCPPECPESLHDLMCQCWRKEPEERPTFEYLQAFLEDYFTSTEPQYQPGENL

SMILES: NC(=O)n1ccc2ccc(-c3ccc(F)cc3)nc21 [Compound 1]
% Inhibition Src (100 μM) (c-Src; 100 μM compound, in-house collection screen, listed as C00001, 100 µM): 58.1% | inhibition at 100 µM (c-Src; [1]): ~58%

SMILES: NC(=O)n1ccc2ccc(-c3ccccc3F)nc21 [Compound 2]
inhibition at 100 µM (c-Src; [1]): 28.6%

SMILES: NC(=O)c1cc2cccc(-c3ccccc3)c2[nH]1 [Compound 3]
inhibition at 100 µM (c-Src; [1]): 34.8%

SMILES: NC(=O)n1ccc2ccc(N3CCCC3)nc21 [Compound 4]
inhibition at 100 µM (c-Src; [1]): 4%

SMILES: NC(=O)Nc1ccn([C@H]2C[C@H](O)[C@@H](CO)O2)c(=O)n1 [Compound 5]
inhibition at 100 µM (c-Src; [1]): 1.8%

SMILES: NC(=O)Nc1ccn([C@@H]2O[C@H](CO)CC2(F)F)c(=O)n1 [Compound 6]
inhibition at 100 µM (c-Src; [1]): 10.3%

SMILES: O=C1/C(=C\c2ccc(-c3ccccc3)cc2)c2ccccc2N1O [Compound 7]
inhibition at 100 µM (c-Src; [1]): 77.3%

SMILES: O=C(Nc1ccccc1)Nc1ccc(/C=C2\C(=O)N(O)c3ccccc32)cc1 [Compound 8]
inhibition at 100 µM (c-Src; [1]): 83.2% | IC50 (c-Src; Table 1): 12.5 µM

SMILES: O=C(Nc1ccccc1)Nc1ccc(/C=C2\C(=O)Nc3ccccc32)cc1 [Compound 9]
inhibition at 100 µM (c-Src; [1]): 84%

SMILES: CN(C)c1nsc2c1C(=O)c1ccccc1C2=O [Compound 10]
% Inhibition Src (100 μM) (c-Src; 100 μM compound, in-house collection screen, 100 µM): 43% | % Inhibition Src (100 μM) (c-Src; 100 μM compound, in-house collection screen, listed as C00004, 100 µM): 43.5%

SMILES: COc1cc(OC)c(/C=C2/C(=O)Nc3ccccc32)c(OC)c1 [Compound 25]
inhibition at 10 µM (c-Src; 10 µM compound, Table 2): 23.1 ± 5.55% | inhibition at 100 µM (c-Src; [2]): 35.8 ± 3.69%

Second part, the compound after the results:

inhibition at 100 µM (c-Src; [1]): 2.2%
SMILES: Nc1nsc2c1C(=O)c1ccccc1C2=O [Compound 11]

inhibition at 100 µM (c-Src; [1]): 40%
SMILES: COc1cc2c(cc1OC)C(c1ccc(OC(C)=O)cc1)CC(=O)N2 (stereo not shown) [Compound 12]

inhibition at 100 µM (c-Src; [1]): 90% | IC50 (c-Src; Table 1): 50 µM
SMILES: CC(=O)c1cccc(-c2nc3n(n2)CC(c2ccccc2)=NN3)c1 [Compound 13]

% Inhibition Src (100 μM) (c-Src; 100 μM compound, in-house collection screen): did not affect the enzyme activity
SMILES: COc1ccc(-c2nc3n(n2)CC(c2ccccc2)=NN3)cc1 [Compound 14]

inhibition at 100 µM (c-Src; [1]): 0.6%
SMILES: Cc1ccc(C2=CCNC(=O)C3C2c2ccccc2N3C)cc1 (stereo not shown) [Compound 16]

inhibition at 100 µM (c-Src; [1]): 15.5%
SMILES: O=C1c2cc(=O)c3cc(O)ccc3n2C2CCCN12 (stereo not shown) [Compound 18]

inhibition at 100 µM (c-Src; [1]): 12.8%
SMILES: NC(=O)c1noc2c1CCCC2O (stereo not shown) [Compound 19]

inhibition at 100 µM (c-Src; [1]): 7.7%
SMILES: CCCN1CC2=C(CC(C)(C)CC2=O)N(c2ccc(C(N)=O)cc2)C1 [Compound 20]

inhibition at 10 µM (c-Src; 10 µM compound, Table 2): 32.1 ± 3.53% | inhibition at 100 µM (c-Src; [2]): 64.6 ± 3.8%
SMILES: O=C1C(=Cc2cccc(Oc3ccccc3)c2)c2ccccc2N1O [Compound 22, 1-hydroxy-3–(3-phenoxybenzylidene)indolin-2-one]

inhibition at 10 µM (c-Src; 10 µM compound, Table 2): 22.8 ± 2.94% | inhibition at 100 µM (c-Src; [2]): 57.4 ± 6.31%
SMILES: O=C1/C(=C\C=C\c2ccc(-c3ccccc3)cc2)c2ccccc2N1O [Compound 23]

inhibition at 10 µM (c-Src; 10 µM compound, Table 2): 34.2 ± 0.6% | inhibition at 100 µM (c-Src; [2]): 87.5 ± 7.41%
SMILES: O=C1/C(=C/c2ccc(-c3ccccc3)cc2)CCN1O [Compound 24]

inhibition at 10 µM (c-Src; 10 µM compound, Table 2): 67% | % Inhibition 10 µM (c-Src; 10 µM compound, Table 2, listed as C00026, 10 µM): 67.03 ± 0.10% | % Inhibition 100 µM (c-Src; 100 µM compound, Table 2, listed as C00026, 100 µM): 94.70 ± 0.30% | inhibition at 100 µM (c-Src; [2]): 95% | IC50 (c-Src; Table 2): 5.63 µM | Ki (c-Src; Table 2): 3.8 µM
SMILES: O=C1Nc2cc(Cl)ccc2/C1=C/c1cc(Br)c(O)c(Br)c1 [Compound 26]

inhibition at 10 µM (c-Src; 10 µM compound, Table 2): 25.3 ± 9.71% | inhibition at 100 µM (c-Src; [2]): 45.6 ± 7.85% | melting point: 257 to 258 °C
SMILES: O=C1Nc2ccccc2C1=Cc1ccc(-c2ccccc2)s1 [Compound 27, 3-((5-phenylthiophen-2-yl)methylene)indolin-2-one]

inhibition at 10 µM (c-Src; 10 µM compound, Table 2): 39.8 ± 3.16% | inhibition at 100 µM (c-Src; [2]): 78.6 ± 1.32%
SMILES: COc1cc2c(cc1OC)C(=Cc1cc(Br)c(O)c(Br)c1)C(=O)N2 [Compound 29, 3–(3,5-dibromo-4-hydroxybenzylidene)-5,6-dimethoxyindolin-2-one]

inhibition at 10 µM (c-Src; 10 µM compound, Table 3, tested as E/Z mixtures): 63.4 ± 1.06% | % Inhibition 100 µM (c-Src; 100 µM compound, Table 3, tested as E/Z mixtures, listed as C00042, 100 µM): 93.88 ± 0.58% | inhibition at 100 µM (c-Src; 100 µM compound, Table 3, tested as E/Z mixtures, read-out: % Inhibition 100 µM): 94% | IC50 (c-Src; Table 3): 5.31 µM | Ki (c-Src; Table 3): 3.58 µM
SMILES: O=C1Nc2cc(Cl)ccc2C1=Cc1ccc(OCc2ccc(C(=O)O)cc2)cc1 [Compound 47, 4-((4-((6-chloro-2-oxoindolin-3-ylidene)methyl)phenoxy)methyl)benzoic acid]
